In US6562866B1 (priority 1998, dated 2003):

Legend:
[1] = test system: liver cells around the central vein; assay: Microscopic grading of abnormal fat-containing cells in the liver of cholesterol-fed rabbits; format: in vivo, New Zealand White rabbits; details: 1% cholesterol plus 1 mg/kg Lovastatin or 0.1% rutin
Protocol: (§1) 24 three-month-old New Zealand White rabbits (Yeonam Horticulture and Animal Husbandry College, Korea), each weighing about 2.5 to 2.6 kg, were raised under a condition of temperature 20±2° C., relative humidity 55±5%, and photoperiod 12L/12D. […] RC4 diet comprises 7.6% moisture, 22.8% crude protein, 2.8% crude fat, 8.8% crude ash, 14.4% crude cellulose and 43.6% soluble nitrogen-free substances.

[2] = Chemical analysis of blood of rabbits fed 1% cholesterol diets; format: in vivo, New Zealand White rabbits; details: 6 weeks; for lowering of total plasma cholesterol level as compared to the comparative group: 0.1% in 1% cholesterol diet
Protocol: as §1, with “substances. Rutin and quercetin were purchased from Sigma Co. (St. Louis, Mo.).” for “substances.”
The rabbits were fed for 6 weeks while being allowed free access to the diets and water.
After six weeks, the rabbits were anesthetized with an intramuscular injection of ketamine (50 mg/kg) in the femoral region and sacrificed. A blood sample was taken from the heart of each rabbit, allowed to stand for 2 hours and centrifuged at 3,000 rpm for 15 minutes and the supernatant serum was separated and stored in a freezer before use.
The chemical analysis of blood was carried out by employing a blood chemical analyzer (CIBA Corning 550 Express, USA) to determine the changes in GOT, GPT, γ-GTP, total cholesterol and triglyceride levels.

[3] = test system: main artery fatty streak / arterial endothelium; assay: Analysis for fatty streak in the main artery of cholesterol-fed rabbits; format: in vivo, New Zealand White rabbits; details: for A: Proportion (%) of fatty streak region to the total arterial area: 1% cholesterol diet plus 0.1% rutin or quercetin or 1 mg/kg Lovastatin, 6 weeks, Oil Red O staining
Protocol: as §1
The chest of each of the rabbits sacrificed in Step 2 was incised. The downward portion of the main artery from the site 1 cm above the aortic valve was cut out in a length of about 5 cm and the fat surrounding the main artery was removed. The main artery was incised in the middle along the longitudinal axis and pinned to a dish. The moist artery was photographed and, then, the staining of fatty streaks was carried out in accordance with the method of Esper, E., et al. (J. Lab. Clin. Med., 121, 103-110 (1993)) as follows.
A part of the incised main artery was washed three times with anhydrous propylene glycol for 2 min and stained for 30 min. with a saturated solution of Oil Red O (ORO, Sigma Co.) dissolved in propylene glycol. Thereafter, the artery was washed twice with 85% propylene glycol for 3 min. to remove remaining staining solution and, then washed with physiological saline. The artery was photographed and the photograph was traced. The area of stained region (fatty streak region) was determined with an image analyzer (LEICA, Q-600, Germany) and its proportion (%) to the total arterial area was calculated.

HMG-CoA reductase = biological target: T1, HMG-CoA reductase (Rattus norvegicus, UniProt P51639); assay: HMG-CoA reductase activity assay on liver microsomes of the fed rats; format: biochemical; details: liver microsomes of rats fed 0.1% test substance in 1% cholesterol diet, versus control group
T1 construct: the supernatant was ultracentrifuged at 100,000×g for 60 minutes to obtain microsomal precipitates; from tissue; host or cells: liver microsomes of the fed rats
T1 sequence (P51639 1-887): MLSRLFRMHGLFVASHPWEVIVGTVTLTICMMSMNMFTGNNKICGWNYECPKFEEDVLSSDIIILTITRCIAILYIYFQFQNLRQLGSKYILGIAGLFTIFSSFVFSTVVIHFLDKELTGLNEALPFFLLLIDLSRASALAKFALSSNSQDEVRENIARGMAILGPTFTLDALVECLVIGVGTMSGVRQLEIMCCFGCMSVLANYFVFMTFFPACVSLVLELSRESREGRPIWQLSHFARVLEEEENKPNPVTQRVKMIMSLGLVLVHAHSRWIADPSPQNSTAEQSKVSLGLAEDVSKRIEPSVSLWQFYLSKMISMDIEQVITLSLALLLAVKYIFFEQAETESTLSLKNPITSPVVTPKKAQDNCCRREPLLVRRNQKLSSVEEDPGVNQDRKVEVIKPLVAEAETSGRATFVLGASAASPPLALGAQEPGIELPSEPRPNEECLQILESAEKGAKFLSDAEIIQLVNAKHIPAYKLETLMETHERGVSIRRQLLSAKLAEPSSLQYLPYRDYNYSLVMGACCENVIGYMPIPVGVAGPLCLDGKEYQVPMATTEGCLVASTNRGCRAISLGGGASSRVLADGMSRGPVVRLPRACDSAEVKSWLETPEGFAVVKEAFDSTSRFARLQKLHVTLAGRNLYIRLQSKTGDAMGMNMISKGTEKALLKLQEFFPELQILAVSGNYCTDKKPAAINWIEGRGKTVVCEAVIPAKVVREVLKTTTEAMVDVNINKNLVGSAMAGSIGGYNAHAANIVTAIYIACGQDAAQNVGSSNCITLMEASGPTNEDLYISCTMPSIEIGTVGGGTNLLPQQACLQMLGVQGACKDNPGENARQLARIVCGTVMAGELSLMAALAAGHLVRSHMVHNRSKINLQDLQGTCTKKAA
Protocol: In order to determine the activity of HMG-COA reductase, Hulcher's method was employed after some modification (see J. Lipid Res., 14, 625-641(1973)). In this method, the concentration of the coenzyme-A (CoA-SH), which is produced when HMG-CoA is reduced to a mevalonate salt by the action of HMG-CoA reductase, is determined by spectroscopy and the activity of HMG-CoA reductas e is calculated therefrom.
3g of liver tissue taken from each group of rats of Example 2 was washed successively with 100 ml of a cold saline (0.15M NaCl) and 100 ml of a cold buffer solution A (0.1M triethanolamine, HCl/0.2M EDTA/2 mM dithiothreitol (DTT)). The cold buffer solution A was added to the liver tissue in an amount of 2 ml per 1 g of the liver tissue and the mixture was homogenized with a homogenizer. The homogenate was centrifuged at 15,000×g for 15 minutes, and then, the supernatant was ultracentrifuged at 100,000×g for 60 minutes to obtain microsomal precipitates. The precipitates thus obtained was washed with a cold buffer solution A and kept in a 1.5 ml tube at −70° C. […]
Then, the reactant was mixed with 20 μl of DTNB buffer solution (3mM DTNB/0.1M triethanolamine/0.2M EDTA, pH 7.4) and the absorbance of the mixture was determined at 412 nm to calculate the amount of CoA-SH (activity of HMG-CoA reductase activity).

[4] = Plasma total cholesterol, HDL-cholesterol and neutral lipid in rats fed high-cholesterol diets; format: in vivo, Sprague-Dawley rats; details: six weeks
Protocol: 30 three-week-old white Sprague-Dawley rats (Taihan laboratory animal center, Korea), each weighing about 90 to 110 g, were evenly divided into three dietary groups by a randomized block design.
The rats were allowed to feed freely on the specified diet together with water for six weeks, the ingestion amount was recorded daily and the,rats were weighed every 7 days, and then the record was analyzed.
The rats of the dietary groups obtained in Step 1 were sacrificed and blood samples were taken therefrom. The blood was allowed to stand for 2 hours and centrifuged at 3,000 rpm for 15 minutes and the supernatant was separated and stored in a deep freezer before use. The chemical analysis of blood was carried out by employing a blood chemical analyzer (CIBA Corning 550 Express, USA) to determine the changes in total cholesterol, HDL-cholesterol and triglyceride levels.

ACAT = ACAT assay on liver microsomes of the fed rats; format: biochemical; details: liver microsomes of rats fed 0.1% test substance in 1% cholesterol diet, versus control group
Protocol: 1 g each of the livers taken from each group of rats of Example 2 was homogenized in 5 ml of homogenization medium (0.1 M KH2PO4, pH 7.4, 0.1 mM EDTA and 10 mM β-mercaptoethanol). The homogenate was centrifuged at 3,000×g for 15 min. at 4° C. and the supernatant thus obtained was centrifuged at 15,000×g for 15 min. at 4° C. to obtain a supernatant. The supernatant was put into an ultracentrifuge tube (Beckman) and centrifuged at 100,000×g for 1 hour at 4° C. to obtain microsomal pellets, which were then suspended in 3 ml of the homogenization medium and centrifuged at 100,000×g for 1 hour at 4° C. The pellets thus obtained were suspended in 1 ml of the homogenization medium. The protein concentration of the resulting suspension was determined by Lowry's method and then adjusted to 4 to 8 mg/ml. The resulting suspension was stored in a deep freezer (Biofreezer, Forma Scientific Inc.). […]
200 μl of the resulting supernatant was put in a scintillation bottle and 4 ml of scintillation fluid (Lumac) was added thereto. The mixture was assayed for radioactivity with 1450 Microbeta liquid scintillation counter (Wallacoy, Finland). ACAT activity was calculated as picomoles of cholesteryl oleate synthesized per min. per mg protein (pmoles/min/mg protein).

ICR mice = assay: Toxicity of orally administered rutin (single oral dose, 10 day observation)
Protocol: 12 seven-week-old, specific pathogen-free ICR […] mice, six female mice each weighing about 25 to 29 g and six male mice each weighing about 34 to 38 g, were kept under an environment of 22±1° C., 55±5% relative humidity and 12L/12D photoperiod. Fodder (Cheiljedang Co., mouse and rat fodder) and water were sterilized and fed to the mice.
Further, on the 10th day, the mice were sacrificed and the internal organs were visually examined.

[5] = Administration of rutin capsules to humans, plasma lipid metabolism; format: in vivo, human; details: two men, daily oral dose of lomg/kg as capsule, 60 days, before vs after
Protocol: The plasma cholesterol and neutral lipid (triglyceride) contents were determined before and after the administration.

[6] = 1% cholesterol diet plus 0.1% rutin or quercetin or 1 mg/kg Lovastatin
[7] = 1% cholesterol diet plus 0.1% test substance

SMILES	TG (triglyceride) [2, 6] [mg/dL]	Total-C (total cholesterol) [2, 6] [mg/dL]	A: Proportion (%) of fatty streak region to the total arterial area [3] [%]	Inhibition of HMG-CoA reductase activity (%) (HMG-CoA reductase)	reduction of neutral lipid content compared with control group ([4]; 0.1% in 1% cholesterol diet) [%]	reduction of total plasma cholesterol level compared with control group ([4]; 0.1% in 1% cholesterol diet) [%]	HDL-C (HDL-cholesterol) [4, 7] [mg/dL]	TG (triglyceride) [4, 7] [mg/dL]	lowering of total plasma cholesterol level as compared to the comparative group [2] [%]	also measured
CC[C@H](C)C(=O)O[C@H]1C[C@@H](C)C=C2C=C[C@H](C)[C@H](CC[C@@H]3C[C@@H](O)CC(=O)O3)[C@H]21 [Lovastatin ®, Lovastatin, reference compound]	65.6	1209.5	5							microscopic features of the liver (FIGS. 2B, 2C) [1]: many cells containing excessive fat; layer of macrophage-lipid complex on the arterial endothelium (FIGS. 1B, 1C) ([3]; 1% cholesterol plus 1 mg/kg Lovastatin or 0.1% rutin): no or very thin layers
O=c1c(O)c(-c2ccc(O)c(O)c2)oc2cc(O)cc(O)c12 [Quercetin, quercetin]	30.0	820.0	8	30	17	30	41 ± 3	81 ± 4	30	increase of HDL-C/Total-C ratio compared with control group ([4]; 0.1% in 1% cholesterol diet): 54%; HDL-C/Total-C ratio (row head is a formula, MATH:00001) [4, 7]: 43; Total-C (total cholesterol) [4, 7]: 95 ± 5 mg/dL; % Inhibition on ACAT activity (ACAT): 20%
C[C@@H]1O[C@@H](OC[C@H]2O[C@@H](Oc3c(-c4ccc(O)c(O)c4)oc4cc(O)cc(O)c4c3=O)[C@H](O)[C@@H](O)[C@@H]2O)[C@H](O)[C@H](O)[C@H]1O [Rutin]	35.3	798.2	10	40	20	21	36 ± 2	78 ± 3	30	survival at day 10 (ICR mice; mice, single oral dose of 1,000 mg/kg): All the mice were alive; pathological abnormality at autopsy (ICR mice; mice, single oral dose of 1,000 mg/kg, day 10): did not develop any pathological abnormality; toxicity (ICR mice; mouse, in vivo, po, 160 mg/kg): no toxicity; reduction of plasma cholesterol content [5]: 25%; reduction of plasma neutral lipid (triglyceride) content [5]: 20%; GOT [2, 6]: 87.0 IU/l; GPT [2, 6]: 33.9 IU/l; γ-GTP [2, 6]: 1.92 IU/l
